Data: publication PMC10283505, “CVM-1118 (foslinanib), a 2-phenyl-4-quinolone derivative, promotes apoptosis and inhibits vasculogenic mimicry via targeting TRAP1” (Pathology and Oncology Research, 2023)

What was measured:
SNB-19 = experiment: NCI 60 cytotoxicity screening; format: cell-based; conditions: Homo sapiens; SNB-19, CNS
SR = experiment: NCI 60 cytotoxicity screening; format: cell-based; conditions: Homo sapiens, Leukemia
HCT-15 = experiment: NCI 60 cytotoxicity screening; format: cell-based; conditions: Homo sapiens; HCT-15, Colon
UACC-62 = experiment: NCI 60 cytotoxicity screening; format: cell-based; conditions: Homo sapiens; UACC-62, Melanoma
TGFβig-h3 = target: T1, TGFβig-h3 (Homo sapiens, UniProt Q15582); experiment: Surface plasmon resonance (Biacore); format: binding; conditions: TGFβig-h3, SPR
T1 sequence (Q15582 24-683): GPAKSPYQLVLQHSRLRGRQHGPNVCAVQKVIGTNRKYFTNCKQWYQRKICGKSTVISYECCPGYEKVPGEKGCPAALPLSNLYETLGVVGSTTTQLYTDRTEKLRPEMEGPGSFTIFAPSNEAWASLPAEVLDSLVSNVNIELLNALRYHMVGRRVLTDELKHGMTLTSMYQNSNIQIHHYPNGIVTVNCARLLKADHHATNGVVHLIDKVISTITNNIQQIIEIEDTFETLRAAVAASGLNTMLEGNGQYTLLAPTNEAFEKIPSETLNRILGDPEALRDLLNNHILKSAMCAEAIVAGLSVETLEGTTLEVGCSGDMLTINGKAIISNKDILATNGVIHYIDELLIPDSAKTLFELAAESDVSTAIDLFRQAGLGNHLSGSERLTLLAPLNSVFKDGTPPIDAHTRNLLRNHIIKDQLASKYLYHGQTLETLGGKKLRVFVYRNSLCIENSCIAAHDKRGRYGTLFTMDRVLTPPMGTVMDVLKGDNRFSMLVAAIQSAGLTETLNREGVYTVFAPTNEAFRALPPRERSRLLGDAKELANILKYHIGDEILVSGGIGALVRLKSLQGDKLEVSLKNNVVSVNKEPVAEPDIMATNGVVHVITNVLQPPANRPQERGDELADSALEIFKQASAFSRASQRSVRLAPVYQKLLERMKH

HCT-116 = experiment: Orthotopic HCT-116 mouse xenograft study, tumor volume; format: in vivo, BALB/c nude mice; conditions: for tumor volume: day 43, vehicle 1,139 ± 580
Method: This animal study was contracted to CrownBio International R&D Center (Beijing, China) and was conducted under the approval of the Animal Ethics Committee at CrownBio in compliance with institutional and national guidelines. Seven-to eight-week-old female BALB/c nude mice were obtained from HFK Bio-Technology Co., Ltd. (Beijing, China). HCT-116 cells (2 × 10^6) were suspended in 20 μL PBS and then injected into the cecal wall. Treatment began on day 14 after cell inoculation when tumor reached ∼100 mm^3 measured in a satellite group of three mice. Treatment groups include vehicle control [PEG400:pH 10 carbonate buffer (40:60)], CVM-1118 at 20, 50, and 100 mg/kg given orally daily for 28 days, and CVM-1118 at 20 mg/kg given as intravenous injection once every 2 days for 7 times. Tumor volumes were measured at the end of in-life study on day 43. At the end of in vivo study, tumor tissues from selected groups were excised, collected, and subjected to standard immunohistochemical procedures to visualize the effect of CVM-1118 on VM network formation. Briefly, rabbit anti-human CD31 antibody (Abcam) was used as the primary Ab for the staining and the number of channels with CD31+/red blood cell (RBC)+, or CD31−/RBC+ were counted based on five light fields (×200) on the whole section of each sample in each group under microscope. Analysis of difference in tumor volume for drug-treated group against vehicle control group was conducted using one-way ANOVA followed by least significant difference (LSD) test (equal variance tested and confirmed by Brown-Forsythe test). Statistical analysis for VM formation was evaluated using Mann-Whitney test. All data were analyzed using GraphPad Prism 9.5.

Smad2/P-Smad2 = experiment: Western blot of P-Smad2/Smad2; format: cell-based, human; conditions: C8161, 10 nM, 24 h, relative to β-actin, against control
Method: Cells at 80% confluence were rinsed with PBS, harvested by scrapping into a modified RIPA buffer plus protease inhibitor cocktail using 100 μL buffer per 1 × 10^6 cells. After sonication and centrifugation, the protein concentrations in the supernatants were determined using a BCA assay (Thermo Fisher Scientific). […] Nodal was detected using a mouse monoclonal anti-Nodal antibody (sc-373910; Santa Cruz; 1 μg/ml in 20 mM Tris/150 mM NaCl/0.1% [w/v] Tween 20, pH 7.4 [TBST] plus 5% BSA) followed by an anti-mouse plus horseradish peroxidase (HRP) secondary antibody (NXA931; GE Healthcare; 1 μg/ml in TBST plus 5% BSA) and enhanced chemiluminescence (ECL; GE Healthcare). Smad2 was detected using a rabbit polyclonal anti-Smad2/3 antibody (07-408; Millipore; 1 μg/ml in TBST plus 5% BSA) followed by an anti-rabbit plus HRP secondary antibody (NA934V; GE Healthcare; 1 μg/ml in TBST plus 5% BSA) and ECL. […] To assess relative changes in protein expression, the exposed films were digitized using a ChemiDoc XRS imager (Bio-Rad Laboratories) and the relative amount of protein determined against the untreated control cells normalized to a value of 1.0 using the imager’s Quantity One software package (Bio-Rad Laboratories) and corrected for loading of protein into each lane against the β-actin protein measured in the control lane.

Structure (SMILES): COc1ccc2[nH]c(-c3cccc(F)c3)cc(=O)c2c1O [CVM-1125]
- GI50 (SNB-19): 28.8 nM
- GI50 (SR): 12 nM
- GI50 (HCT-15): 35.5 nM
- GI50 (UACC-62): 31 nM
- Association (ka) (TGFβig-h3): No interaction
- Dissociation (kd) (TGFβig-h3): No interaction
- KD (kd/ka) (TGFβig-h3): No interaction

Structure (SMILES): COc1ccc2[nH]c(-c3cccc(F)c3)cc(=O)c2c1OP(=O)(O)O [CVM-1118]
- tumor volume (HCT-116; 20 mg/kg i.v. once every 2 days for 7 times): 670 ± 447 mm^3
- animals found dead prior to the termination of the study (HCT-116; 20 mg/kg i.v. treatment group): two mice
- tumor volume (HCT-116; 20 mg/kg orally daily for 28 days): 1,591 ± 747 mm^3
- animals found dead prior to the termination of the study (HCT-116; 50 mg/kg oral treatment group): One mouse
- tumor volume (HCT-116; 50 mg/kg orally daily for 28 days): 722 ± 595 mm^3
- tumor volume (HCT-116; 100 mg/kg orally daily for 28 days): 475 ± 415 mm^3
- reduction in the ratio of P-Smad2 to Smad2 protein level (Smad2/P-Smad2): 76%
